pEC50, pIC50: −log10 of the molar value. Read-outs that look alike come from different tables or passages of the source.
Tests used:
[1] = molecular target: T1, full-length B-Catenin (Uniprot ID P35222) (Homo sapiens, UniProt P35222); assay: Alphascreen binding assay (beta-catenin / biotin-TCF4 10-53)
T1 construct: 65 nM full-length B-Catenin (Uniprot ID P35222)
T1 sequence (P35222 1-781): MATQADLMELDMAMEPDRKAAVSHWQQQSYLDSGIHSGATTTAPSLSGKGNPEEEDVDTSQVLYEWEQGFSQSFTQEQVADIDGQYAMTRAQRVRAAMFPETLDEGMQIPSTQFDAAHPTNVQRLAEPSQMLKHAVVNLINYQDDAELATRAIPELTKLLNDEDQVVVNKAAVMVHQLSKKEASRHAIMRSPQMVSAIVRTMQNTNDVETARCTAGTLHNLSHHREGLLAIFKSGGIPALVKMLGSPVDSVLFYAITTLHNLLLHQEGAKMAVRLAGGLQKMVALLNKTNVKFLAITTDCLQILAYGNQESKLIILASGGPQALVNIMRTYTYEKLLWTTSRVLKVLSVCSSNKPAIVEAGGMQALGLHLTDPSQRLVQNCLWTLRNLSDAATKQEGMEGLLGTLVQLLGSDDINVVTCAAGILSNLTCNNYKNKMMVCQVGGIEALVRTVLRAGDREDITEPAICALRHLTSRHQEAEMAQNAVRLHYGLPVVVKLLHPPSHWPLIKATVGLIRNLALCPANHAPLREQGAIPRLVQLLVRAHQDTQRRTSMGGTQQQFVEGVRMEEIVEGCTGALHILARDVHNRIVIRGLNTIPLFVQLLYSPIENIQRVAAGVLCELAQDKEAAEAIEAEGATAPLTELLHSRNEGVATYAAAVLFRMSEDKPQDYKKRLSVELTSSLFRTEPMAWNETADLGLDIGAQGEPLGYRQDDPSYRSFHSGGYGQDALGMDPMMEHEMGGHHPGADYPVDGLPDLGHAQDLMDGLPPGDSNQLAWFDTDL
How it was run: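 Final concentrations: 65 nM full-length human β-catenin plus 10 nM biotin-TCF4(10-53) peptide, test peptide 3-fold from 10 uM to 5 nM, preincubated 15 min at 20 °C in Tris pH 8.0/250 mM NaCl buffer. Nickel-chelate AlphaScreen donor/acceptor beads then added for 60 min in the dark; duplicate reads fitted to 1:1 binding model with Hill slope.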

CHI Log D procedure = format: physicochemical; conditions: for chromatographic logD: pH 7.4, CHI Log D; for CHI Log D: pH 7.4
[2] = molecular target: T2, full-length beta-Catenin (Uniprot ID P35222) (Homo sapiens, UniProt P35222); assay: Fluorescence polarization IC50 (beta-catenin / 5FAM-TCF4 10-53 competition); format: binding
T2 construct: 10 nM full-length beta-Catenin (Uniprot ID P35222)
T2 sequence (P35222 1-781): T1 sequence (P35222 1-781)

[3] = Table E2-1, read-out: beta-Catenin FP IC50
[4] = fluorescence polarization, beta-catenin, read-out: FP EC50

pEC50 [1]	chromatographic logD (CHI Log D procedure)	pIC50 [2, 3]	CHI Log D (CHI Log D procedure)	pIC50 [2, 4]	SMILES
6.82	1.32	5.67			CC[C@H](C)[C@H](NC(=O)[C@H](CC(=O)O)NC(=O)[C@H](C)NC(C)=O)C(=O)N[C@]1(C)CCN(C)C(=O)OCC=CCCCCC[C@@](C)(C(=O)N[C@@H](Cc2ccccc2)C(=O)N[C@@H](Cc2c[nH]c3ccccc23)C(=O)N[C@@H](C)C(N)=O)NC(=O)[C@H](CCC(N)=O)NC(=O)[C@H](Cc2ccccc2)NC(=O)[C@H](C)NC(=O)[C@H](C)NC(=O)[C@H](CCC(=O)O)NC(=O)[C@H](CC(=O)O)NC1=O [I-153, Ac-Ala-Asp-Ile-RdN-Asp-Glu-Ala-Ala-Phe-Gln-S7-Phe-Trp-Ala-NH2]
7.27		5.85	2.019	5.85	CC(=O)N1CCC[C@]12CC=CCCCC1(CCCC=CCCCCCC[C@@](C)(C(=O)N[C@@H](Cc3ccccc3F)C(=O)N[C@@H](Cc3c[nH]c4ccccc34)C(=O)N[C@@H](CCC(N)=O)C(N)=O)NC(=O)[C@H](C(C)C)NC(=O)[C@H](Cc3ccccc3)NC(=O)[C@H](C)NC(=O)[C@H](C)NC(=O)[C@H](CC(=O)O)NC(=O)[C@H](CC(=O)O)NC1=O)NC(=O)[C@H](C)NC(=O)[C@H](CC(=O)O)NC2=O (stereo partly drawn) [I-319, Ac-PL3-Asp-Ala-B5-Asp-Asp-Ala-Ala-Phe-Val-S8-2FF-Trp-Gln-NH2]
6.26		5.70	2.58	5.70	CC[C@H](C)[C@@H]1NC(=O)[C@H](CC(=O)O)NC(=O)[C@]2(CC=CCCCC3(CCCC=CCCCCCC[C@@](C)(C(=O)N[C@@H](Cc4ccccc4)C(=O)N[C@@H](Cc4c[nH]c5ccccc45)C(=O)N[C@@H](Cc4c[nH]cn4)C(N)=O)NC(=O)[C@H](C(C)C)NC(=O)[C@H](Cc4ccccc4)NC(=O)[C@H](C)NC(=O)[C@H](C)NC(=O)[C@H](CCC(=O)O)NC(=O)[C@H](CC(=O)O)NC3=O)NC1=O)CCCN2C(C)=O (stereo partly drawn) [I-176, Ac-PL3-Asp-Ile-B5-Asp-Glu-Ala-Ala-Phe-Val-S8-Phe-Trp-His-NH2]
6.72	2	5.89			CC(=O)N1CCC[C@]12CC=CCCCC1(CCCC=CCCCCCC[C@@](C)(C(=O)N[C@@H](Cc3ccccc3)C(=O)N[C@@H](Cc3csc4ccccc34)C(=O)N[C@@H](C)C(N)=O)NC(=O)[C@H](CCC(N)=O)NC(=O)[C@H](Cc3ccccc3)NC(=O)[C@H](C)NC(=O)[C@H](C)NC(=O)[C@H](CC(=O)O)NC(=O)[C@H](CC(=O)O)NC1=O)NC(=O)[C@H](CCO)NC(=O)[C@H](CC(=O)O)NC2=O (stereo partly drawn) [I-299, Ac-PL3-Asp-Hse-B5-Asp-Asp-Ala-Ala-Phe-Gln-S8-Phe-BztA-Ala-NH2]
6.73		5.73	2.208	5.73	CC(=O)N1CCC[C@]12CC=CCCCC1(CCCC=CCCCCCC[C@@](C)(C(=O)N[C@@H](Cc3ccccc3)C(=O)N[C@@H](Cc3c[nH]c4ccccc34)C(=O)N[C@@H](C)C(N)=O)NC(=O)[C@H](C(C)C)NC(=O)[C@H](Cc3ccccc3)NC(=O)[C@H](C)NC(=O)[C@H](C)NC(=O)[C@H](CC(=O)O)NC(=O)[C@H](CC(=O)O)NC1=O)NC(=O)[C@H](C)NC(=O)[C@H](CC(=O)O)NC2=O (stereo partly drawn) [I-292, Ac-PL3-Asp-Ala-B5-Asp-Asp-Ala-Ala-Phe-Val-S8-Phe-Trp-Ala-NH2]
6.49		5.50	2.195	5.50	CC(=O)N1CCC[C@]12CC=CCCCC1(CCCC=CCCCCCC[C@@](C)(C(=O)N[C@@H](Cc3ccccc3)C(=O)N[C@@H](Cc3c[nH]c4ccccc34)C(=O)N[C@@H](C)C(N)=O)NC(=O)[C@H](C(C)C)NC(=O)[C@H](Cc3ccccc3)NC(=O)[C@H](C)NC(=O)[C@H](C)NC(=O)[C@H](CC(=O)O)NC(=O)[C@H](CC(=O)O)NC1=O)NC(=O)[C@H](C)NC(=O)[C@H](CC(=O)O)NC2=O (stereo partly drawn) [I-291, Ac-PL3-Asp-Ala-B5-Asp-Asp-Ala-Ala-Phe-Val-S8-Phe-Trp-Ala-NH2]
6.19		5.37	1.222	5.37	CC[C@H](C)[C@H](NC(=O)[C@H](CC(=O)O)NC(=O)[C@H](C)NC(C)=O)C(=O)N[C@]1(C)CCN(C)C(=O)OCC=CCCCCC[C@@](C)(C(=O)N[C@@H](Cc2ccccc2)C(=O)N[C@@H](Cc2c[nH]c3ccccc23)C(=O)N[C@@H](Cc2c[nH]cn2)C(N)=O)NC(=O)[C@H](CCC(N)=O)NC(=O)[C@H](Cc2ccccc2)NC(=O)[C@H](C)NC(=O)[C@H](C)NC(=O)[C@H](CC(=O)O)NC(=O)[C@H](CC(=O)O)NC1=O [I-64, Ac-Ala-Asp-Ile-RdN-Asp-Asp-Ala-Ala-Phe-Gln-S7-Phe-Trp-His-NH2]
6.57			2.074	5.80	CC(=O)N1CCC[C@]12CC=CCCCC1(CCCC=CCCCCCC[C@@](C)(C(=O)N[C@@H](Cc3ccccc3)C(=O)N[C@@H](Cc3c[nH]c4ccccc34)C(=O)N[C@@H](CCC(N)=O)C(N)=O)NC(=O)[C@H](C(C)C)NC(=O)[C@H](Cc3cccc(C(F)(F)F)c3)NC(=O)[C@H](C)NC(=O)[C@H](C)NC(=O)[C@H](CC(=O)O)NC(=O)[C@H](CC(=O)O)NC1=O)NC(=O)[C@H](C)NC(=O)[C@H](CC(=O)O)NC2=O (stereo partly drawn) [I-239, Ac-PL3-Asp-Ala-B5-Asp-Asp-Ala-Ala-3F3MeF-Val-S8-Phe-Trp-Gln-NH2]
7.29		6.51	2.213	6.51	CC[C@H](C)[C@@H]1NC(=O)[C@H](CC(=O)O)NC(=O)[C@]2(CC=CCCCC3(CCCC=CCCCCCC[C@@](C)(C(=O)N[C@@H](Cc4ccccc4)C(=O)N[C@@H](Cc4c[nH]c5ccccc45)C(=O)N[C@@H](CCC(N)=O)C(N)=O)NC(=O)[C@H](CCC(N)=O)NC(=O)[C@H](Cc4ccccc4)NC(=O)[C@H](C)NC(=O)[C@H](C)NC(=O)[C@H](CCC(=O)O)NC(=O)[C@H](CC(=O)O)NC3=O)NC1=O)CCCN2C(C)=O (stereo partly drawn) [I-181, Ac-PL3-Asp-Ile-B5-Asp-Glu-Ala-Ala-Phe-Gln-S8-Phe-Trp-Gln-NH2]
7.05		5.71	2.012	5.71	COc1ccc(C[C@@H]2NC(=O)[C@H](C)NC(=O)[C@H](C)NC(=O)[C@H](CCC(=O)O)NC(=O)[C@H](CC(=O)O)NC(=O)C3(CCCC=CCCCCCC[C@@](C)(C(=O)N[C@@H](Cc4ccccc4)C(=O)N[C@@H](Cc4c[nH]c5ccccc45)C(=O)N[C@@H](CCC(N)=O)C(N)=O)NC(=O)[C@H](C(C)C)NC2=O)CCCC=CC[C@]2(CCCN2C(C)=O)C(=O)N[C@@H](CC(=O)O)C(=O)N[C@@H](C)C(=O)N3)cc1 (stereo partly drawn) [I-217, Ac-PL3-Asp-Ala-B5-Asp-Glu-Ala-Ala-MeTyr-Val-S8-Phe-Trp-Gln-NH2]
6.92		5.33	2.001	5.33	CC(=O)N1CCC[C@]12CC=CCCCC1(CCCC=CCCCCCC[C@@](C)(C(=O)N[C@@H](Cc3ccccc3F)C(=O)N[C@@H](Cc3c[nH]c4ccccc34)C(=O)N[C@@H](CCC(N)=O)C(N)=O)NC(=O)[C@H](C(C)C)NC(=O)[C@H](Cc3ccccc3)NC(=O)[C@H](C)NC(=O)[C@H](C)NC(=O)[C@H](CC(=O)O)NC(=O)[C@H](CC(=O)O)NC1=O)NC(=O)[C@H](C)NC(=O)[C@H](CC(=O)O)NC2=O (stereo partly drawn) [I-318, Ac-PL3-Asp-Ala-B5-Asp-Asp-Ala-Ala-Phe-Val-S8-2FF-Trp-Gln-NH2]
6.62			2.412	5.78	CC[C@H](C)[C@@H]1NC(=O)[C@H](CC(=O)O)NC(=O)[C@]2(CC=CCCCC3(CCCC=CCCCCCC[C@@](C)(C(=O)N[C@@H](Cc4ccccc4)C(=O)N[C@@H](Cc4c[nH]c5ccccc45)C(N)=O)NC(=O)[C@H](CCC(N)=O)NC(=O)[C@H](Cc4ccccc4)NC(=O)[C@H](C)NC(=O)[C@H](C)NC(=O)[C@H](CCC(=O)O)NC(=O)[C@H](CC(=O)O)NC3=O)NC1=O)CCCN2C(C)=O (stereo partly drawn) [I-192, Ac-PL3-Asp-Ile-B5-Asp-Glu-Ala-Ala-Phe-Gln-S8-Phe-Trp-NH2]
6.62		5.78	2.412	5.78	CC[C@H](C)[C@@H]1NC(=O)[C@H](CC(=O)O)NC(=O)[C@]2(CC=CCCCC3(CCCC=CCCCCCC[C@@](C)(C(=O)N[C@@H](Cc4ccccc4)C(=O)N[C@@H](Cc4c[nH]c5ccccc45)C(N)=O)NC(=O)[C@H](CCC(N)=O)NC(=O)[C@H](Cc4ccccc4)NC(=O)[C@H](C)NC(=O)[C@H](C)NC(=O)[C@H](CCC(=O)O)NC(=O)[C@H](CC(=O)O)NC3=O)NC1=O)CCCN2C(C)=O (stereo partly drawn) [I-191, Ac-PL3-Asp-Ile-B5-Asp-Glu-Ala-Ala-Phe-Gln-S8-Phe-Trp-NH2]

— US20240116985A1, “STAPLED PEPTIDES AND METHODS THEREOF” (priority 2020, published 2024)
